Test results taken from US11708348B2, “Protease inhibitors for treatment of coronavirus infections” (The Scripps Research Institute, priority 2021, dated 2023).

Each compound was assayed on SARS-CoV-2 strain USA-WA1/2020 (assay: microbe, parasite or virus in culture). Settings: Severe acute respiratory syndrome coronavirus 2, HeLa-ACE2, 24 h, HeLa-ACE2 cells, SARS-CoV-2 infection, 24 h; cells given as a bound; read-out: EC50, uM (Hela).
Assay type: cell-based
Work on CC(C)C[C@H](NC(=O)C1CCCNC1=O)C(=O)N[C@@H](C[C@@H]1CCNC1=O)C(=O)COC(F)(F)F (stereo partly drawn) [Compound 190, N-((S)-4-methyl-1-oxo-1-(((S)-3-oxo-1-((S)-2-oxopyrrolidin-3-yl)-4-(trifluoromethoxy)butan-2-yl)amino)pentan-2-yl)-2-oxopiperidine-3-carboxamide] yielded an EC50 of over 1 µM.

Same assay, conditions: Severe acute respiratory syndrome coronavirus 2, HeLa-ACE2, 24 h, HeLa-ACE2 cells, SARS-CoV-2 infection, 24 h; class symbols; read-out: EC50, uM (Hela)
For COc1ccc(F)cc1NC(=O)C(=O)N[C@@H](CC(C)C)C(=O)N[C@@H](C[C@@H]1CCNC1=O)C(=O)COc1c(F)c(F)cc(F)c1F [Compound 79, N1-(5-fluoro-2-methoxyphenyl)-N2-((S)-4-methyl-1-oxo-1-(((S)-3-oxo-1-((S)-2-oxopyrrolidin-3-yl)-4-(2,3,5,6-tetrafluorophenoxy)butan-2-yl)amino)pentan-2-yl)oxalamide], the EC50 was 0.05 to 0.2 µM.
CC[C@@H](C)[C@@H](O)C(=O)N1C[C@@H]2CCC[C@@H]2[C@H]1C(=O)N[C@@H](C[C@@H]1CCNC1=O)C(=O)COC(F)(F)F [Compound 379, (1S,3aR,6aS)-2-((2R,3R)-2-hydroxy-3-methylpentanoyl)-N-((S)-3-oxo-1-((S)-2-oxopyrrolidin-3-yl)-4-(trifluoromethoxy)butan-2-yl)octahydrocyclo-penta[c]pyrrole-1-carboxamide] showed an EC50 of under 0.05 µM.
CC(C)C[C@H](NC(=O)c1ncc(-c2cccc(F)c2)[nH]1)C(=O)N[C@@H](C[C@@H]1CCNC1=O)C(=O)COC(F)(F)F [Compound 209, 5-(3-fluorophenyl)-N-((S)-4-methyl-1-oxo-1-(((S)-3-oxo-1-((S)-2-oxopyrrolidin-3-yl)-4-(trifluoromethoxy)butan-2-yl)amino)pentan-2-yl)-1H-imidazole-2-carboxamide] showed an EC50 of under 0.05 µM.
O=C(Nc1ccccc1F)C(=O)N[C@@H](CCC1CCCCC1)C(=O)N[C@@H](C[C@@H]1CCNC1=O)C(=O)COc1c(F)c(F)cc(F)c1F [Compound 108, N1-((S)-4-cyclohexyl-1-oxo-1-(((S)-3-oxo-1-((S)-2-oxopyrrolidin-3-yl)-4-(2,3,5,6-tetrafluorophenoxy)butan-2-yl)amino)butan-2-yl)-N2-(2-fluorophenyl)oxalamide] gave an EC50 of 0.2 to 0.5 µM.
In the case of CC(C)C[C@H](NC(=O)C(=O)Nc1ccccc1F)C(=O)N[C@@H](CCC(=O)N(C)C)C(=O)COc1c(F)c(F)cc(F)c1F [Compound 123, N1-((S)-1-(((S)-6-(dimethylamino)-2,6-dioxo-1-(2,3,5,6-tetrafluorophenoxy)-hexan-3-yl)amino)-4-methyl-1-oxopentan-2-yl)-N2-(2-fluorophenyl)oxalamide], the EC50 is reported as 0.05 to 0.2 µM.
With CC(C)C[C@@H](O)C(=O)N1C[C@H]2[C@@H]([C@H]1C(=O)N[C@@H](C[C@@H]1CCNC1=O)C(=O)COC(F)(F)F)C2(C)C [Compound 361, (1R,2S,5S)-3-((R)-2-hydroxy-4-methylpentanoyl)-6,6-dimethyl-N-((S)-3-oxo-1-((S)-2-oxopyrrolidin-3-yl)-4-(trifluoromethoxy)butan-2-yl)-3-azabicyclo-[3.1.0]hexane-2-carboxamide] the EC50 was under 0.05 µM.
Compound CC(C)C[C@H](NC(=O)C1Cc2ccccc2N1)C(=O)N[C@@H](C[C@@H]1CCNC1=O)C(=O)COC(F)(F)F (stereo partly drawn) [Compound 204, N-((S)-4-methyl-1-oxo-1-(((S)-3-oxo-1-((S)-2-oxopyrrolidin-3-yl)-4-(trifluoromethoxy)butan-2-yl)amino)pentan-2-yl)indoline-2-carboxamide] has an EC50 of 0.05 to 0.2 µM.
CC(C)(NC(=O)C(=O)N[C@@H](CC1CCCCC1)C(=O)N[C@@H](C[C@@H]1CCNC1=O)C(=O)COC(F)(F)F)C(F)(F)F [Compound 212, N1-((S)-3-cyclohexyl-1-oxo-1-(((S)-3-oxo-1-((S)-2-oxopyrrolidin-3-yl)-4-(trifluoromethoxy)butan-2-yl)amino)propan-2-yl)-N2-(1,1,1-trifluoro-2-methylpropan-2-yl)oxalamide] gave an EC50 of under 0.05 µM.

Same assay, conditions: Severe acute respiratory syndrome coronavirus 2, HeLa-ACE2, 24 h, HeLa-ACE2 cells, SARS-CoV-2 infection, 24 h; given as bound; read-out: EC50, uM (Hela)
Work on C[C@@H]1C[C@H]2[C@H](C[C@H](C(=O)N[C@@H](C[C@@H]3CCNC3=O)C(=O)COC(F)(F)F)N2C(=O)C(=O)NC(C)(C)C)O1 [Compound 547, (2R,3aS,5R,6aS)-4-(2-(tert-butylamino)-2-oxoacetyl)-2-methyl-N-((S)-3-oxo-1-((S)-2-oxopyrrolidin-3-yl)-4-(trifluoromethoxy)butan-2-yl)hexahydro-2H-furo[3,2-b]pyrrole-5-carboxamide] yielded an EC50 of over 1 µM.

Same assay, conditions: Severe acute respiratory syndrome coronavirus 2, HeLa-ACE2, 24 h, HeLa-ACE2 cells, SARS-CoV-2 infection, 24 h; read-out: EC50, uM (Hela)
CC(C)(C)[C@H](NC(=O)OC1CC1)C(=O)N1C[C@H]2[C@@H]([C@H]1C(=O)N[C@@H](C[C@@H]1CCNC1=O)C(=O)COC(F)(F)F)C2(C)C [Compound 447, cyclopropyl ((S)-1-((1R,2S,5S)-6,6-dimethyl-2-(((S)-3-oxo-1-((S)-2-oxopyrrolidin-3-yl)-4-(trifluoromethoxy)butan-2-yl)carbamoyl)-3-azabicyclo[3.1.0]-hexan-3-yl)-3,3-dimethyl-1-oxobutan-2-yl)carbamate] showed an EC50 of under 0.05 µM.
[2H]C([2H])([2H])C([2H])(C([2H])([2H])[2H])C([2H])([2H])C([2H])([2H])C(=O)N1CC2(CC2)C[C@H]1C(=O)N[C@@H](C[C@@H]1CCNC1=O)C(=O)COC(F)(F)F [Compound 734, (S)-5-(4-(methyl-d3)pentanoyl-2,2,3,3,4,5,5,5-d8)-N-((S)-3-oxo-1-((S)-2-oxopyrrolidin-3-yl)-4-(trifluoromethoxy)butan-2-yl)-5-azaspiro[2.4]heptane-6-carboxamide] gave an EC50 of under 0.05 µM.
Compound O=C(Nc1ccccc1C(F)(F)F)C(=O)N1CC2(CC2)C[C@H]1C(=O)N[C@@H](C[C@@H]1CCNC1=O)C(=O)COC(F)(F)F [Compound 576, (S)-N-((S)-3-oxo-1-((S)-2-oxopyrrolidin-3-yl)-4-(trifluoromethoxy)butan-2-yl)-5-(2-oxo-2-((2-(trifluoromethyl)-phenyl)amino)acetyl)-5-azaspiro[2.4]-heptane-6-carboxamide] has an EC50 of under 0.05 µM.
O=C1NCC[C@H]1C[C@H](NC(=O)[C@@H]1[C@H]2CCC[C@H]2CN1C(=O)C(=O)N1CCOCC1)C(=O)COC(F)(F)F [Compound 544, (1S,3aR,6aS)-2-(2-morpholino-2-oxoacetyl)-N-((S)-3-oxo-1-((S)-2-oxopyrrolidin-3-yl)-4-(trifluoromethoxy)butan-2-yl)octahydrocyclo-penta[c]pyrrole-1-carboxamide] gave an EC50 of 0.5 to 1 µM.
CC(F)(F)C(F)(F)CC(=O)N1CC2(CC2)C[C@H]1C(=O)N[C@@H](C[C@@H]1CCNC1=O)C(=O)COC(F)(F)F [Compound 713, (S)-N-((S)-3-oxo-1-((S)-2-oxopyrrolidin-3-yl)-4-(trifluoromethoxy)butan-2-yl)-5-(3,3,4,4-tetrafluoropentanoyl)-5-azaspiro[2.4]heptane-6-carboxamide] showed an EC50 of 0.05 to 0.2 µM.
In the case of CC(C)(NC(=O)C(=O)N1C[C@H]2[C@@H]([C@H]1C(=O)N[C@@H](C[C@@H]1CCNC1=O)C(=O)COC(F)(F)F)C2(C)C)C(F)F [Compound 555, (1R,2S,5S)-3-(2-((l,l-difluoro-2-methylpropan-2-yl)amino)-2-oxoacetyl)-6,6-dimethyl-N-((S)-3-oxo-1-((S)-2-oxopyrrolidin-3-yl)-4-(trifluoromethoxy)butan-2-yl)-3-azabicyclo-[3.1.0]hexane-2-carboxamide], the EC50 is reported as under 0.05 µM.
